According to patent publication US12083129B2, “Treatment of breast cancer using combination therapies comprising an ATP competitive AKT inhibitor, a CDK4/6 inhibitor, and fulvestrant” (Genentech, Inc., priority 2019, dated 2024):

Tested on: breast cancer cell lines
Assay: single agent sensitivity of breast cancer cell lines
Assay type: cell-based
Conditions: FIG. 1A and 1B
Procedure: Cell lines were treated with agents described herein (e.g. ipatasertib, palbociclib, and fulvestrant). […] (See FIG. 1A and FIG. 1B). There was synergy between ipatasertib and palbociclib as show by the BLISS scores of FIGS. 2A, 2B, 2C, and 2D. […] The percent weight loss resulting from treatment is shown by FIGS. 8A and 8B.

Structure (SMILES)	single agent sensitivity of breast cancer cell lines
CC(=O)c1c(C)c2cnc(Nc3ccc(N4CCNCC4)cn3)nc2n(C2CCCC2)c1=O [palbociclib, 6-acetyl-8-cyclopentyl-5-methyl-2-{[5-(piperazin-1-yl)pyridin-2-yl]amino}pyrido[2,3-d]pyrimidin-7(8H)-one]	differential single agent sensitivity
CC(C)NC[C@@H](C(=O)N1CCN(c2ncnc3c2[C@H](C)C[C@H]3O)CC1)c1ccc(Cl)cc1 [ipatasertib, (S)-2-(4-chlorophenyl)-1-(4-((5R,7R)-7-hydroxy-5-methyl-6,7-dihydro-5H-cyclopenta[d]pyrimidin-4-yl)piperazin-1-yl)-3-(isopropylamino)propan-1-one]	differential single agent sensitivity
